Laboratory results reported in patent US8445509B2, “Fused heterocyclic derivatives and use thereof” (Takeda Pharmaceutical Company Limited, priority 2008, dated 2013).

Assays:
MKN-45 cells = assay: Antitumor test, MKN-45 transplanted nude mouse; assay type: in vivo, nude mouse (BALB/c nu/nu); details: orally, 14 consecutive days
Method: (§1) Cancer cells were cultured in a culture medium containing 10% bovine fetal serum in an incubator at 37° C., 5% CO2. MKN-45 cells were treated with trypsin/EDTA and isolated. MKN-45 and MV-4-11 cells were washed with HBSS (HANK's Balanced Saline Solution). When MKN-45 cells were transplanted, they were adjusted with HBSS to a cell density of 1.2×10^8 cells/mL, and transplanted by subcutaneous injection of 0.05 mL of a mixed suspension (3×10^6 cells) of the cell suspension and the same amount of Matrigel into the abdomen of 6 or 7-week-old female nude mouse (BALB/c nu/nu, CLEA Japan, Inc.). When MV-4-11 cells were transplanted, they were adjusted with HESS to a cell density of 1.2×10^8 cells/mL, and transplanted by subcutaneous injection of 0.05 mL of a mixed suspension (3×10^6 cells) of the cell suspension and the same amount of Matrigel into the abdomen of 7-week-old female nude mouse (BALB/c nu/nu, CLEA Japan, Inc.). When the average tumor volume reached 100-250 mm^3, the mice were grouped, and various doses of test substance were orally administered for 14 consecutive days starting from the next day. The length of the major axis and the length of the minor axis of the tumor were measured over time and the tumor volume was calculated by tumor volume=major axis length×minor axis length×minor axis length×0.5. The ratio of an increase in the average tumor volume of the control group to an increase in the average tumor volume of the drug administration group was taken as the tumor growth rate (%) of the drug administration group. Table 5 showned MKN-45 tumor growth rate (%) and table 6 showned MV-4-11 tumor growth rate (%).

MV-4-11 cells = assay: Antitumor test, MV-4-11 transplanted nude mouse; assay type: in vivo, nude mouse (BALB/c nu/nu); details: MV-4-11, dose 2 mg/kg, orally, 14 consecutive days
Method: as §1

[1] = system: Human umbilical vein-derived vascular endothelial cells (HUVEC); assay: Vascular endothelial cell proliferation inhibitory test (VEGF-stimulated HUVEC); assay type: cell-based; details: 120 h, 5 days of culture with VEGF
Method: Human umbilical vein-derived vascular endothelial cells (HUVEC purchased from KURABO […] LTD.) were cultured in an incubator at 37° C., 5% carbon dioxide in a vascular endothelial cell medium (Invitrogen) containing 3% bovine fetal serum and 2.5 ng/mL basic fibroblast growth factor. To be specific, HUVEC was suspended in a vascular endothelial cell medium containing the aforementioned 3% bovine fetal serum and plated on a 96 well flat bottom plate by 50 μL (3000 cells) each well. After culture overnight, various concentrations of the test substance and 120 ng/mL of vascular endothelial growth factor (VEGF) were dissolved in a vascular endothelial cell medium containing 3% bovine fetal serum and added to each well by 50 μL. After 5 days of culture, a Cell counting kit-8 reagent (DOJINDO LABORATORIES) was added to each well by 10 μL, and the mixture was reacted in an incubator at 37° C., 5% carbon dioxide for 2-3 hr. The absorbance at 450 nm was measured by a microtiter plate reader and the cell proliferation inhibitory activity was determined. Using the absorbance with addition of a test substance at each concentration and based on the nonlinear least-squares analysis using a logistic curve of SAS system NLIN procedure, the concentration of the test substance (IC50 value) necessary for showing 50% of the value obtained without addition of the test substance was calculated.

[2] = system: Human gastric cancer cell line MKN-45; assay: Human gastric cancer cell line MKN-45 growth inhibitory test; assay type: cell-based; details: MKN-45, 72 h
Method: Human gastric cancer cell line MKN-45 (RIKEN BioResource Center) was cultured in RPMI1640 (Invitrogen) containing 10% bovine fetal serum in a gas incubator at 37° C., 5% CO2. MKN-45 cells were treated with trypsin/EDTA and recovered. The cells were suspended in RPMI1640 containing 0.3% bovine fetal serum, plated on a 96 well flat bottom plate at a cells density of 3000 cells/50 μL per well. After culturing overnight, various concentrations of test substance were dissolved in RPMI1640 containing 0.3% bovine fetal serum and added to each well by 50 μL. After culture for 3 days, a Cell counting kit-8 reagent (DOJINDO LABORATORIES) was added to each well by 10 μL, and reacted in an incubator at 37° C., 5% CO2 for 2-3 hr. After the reaction, the absorbance of each well at 450 nm was measured by a microtiter plate reader. The concentration of a test substance necessary for inhibiting the growth by 50% (IC50 value) was calculated using a cell proliferation rate with addition of the test substance at each concentration and according to the nonlinear regression analysis using GraphPad Prism [Sigmoidal dose response (variable slope)]. The cell proliferation rate (%) with addition of a test substance at each concentration was calculated by the following formula. As a positive control (100% growth), dimethyl sulfoxide was added instead of a test substance. As a negative control (0% growth), the compound of Reference Example 136 (WO2005/030140, Entry 104), which is a known c-Met inhibitor, was added in large excess (10 μM) instead of a test substance.

[3] = target: T1, FLT3 intracellular domain protein (Homo sapiens, UniProt P36888); assay: Fms Like Tyrosine Kinase 3 (FLT3) kinase inhibitory activity (AlphaScreen); assay type: biochemical
T1 construct: 7.5 ng/ml of FLT3 intracellular domain protein (Millipore); purchased Millipore
T1 sequence (P36888 564-993 limits assumed): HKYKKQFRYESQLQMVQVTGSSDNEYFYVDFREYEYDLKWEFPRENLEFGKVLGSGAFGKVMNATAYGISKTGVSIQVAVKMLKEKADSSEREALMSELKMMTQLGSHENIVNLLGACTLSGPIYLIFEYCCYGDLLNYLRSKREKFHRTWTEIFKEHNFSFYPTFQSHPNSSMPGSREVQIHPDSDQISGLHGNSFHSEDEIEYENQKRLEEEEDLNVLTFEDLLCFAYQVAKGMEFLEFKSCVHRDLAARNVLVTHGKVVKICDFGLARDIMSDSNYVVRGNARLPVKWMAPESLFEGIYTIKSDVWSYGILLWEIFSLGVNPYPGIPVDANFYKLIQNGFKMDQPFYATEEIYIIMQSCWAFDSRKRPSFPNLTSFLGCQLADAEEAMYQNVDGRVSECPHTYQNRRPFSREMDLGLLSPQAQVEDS
Method: A test compound dissolved in dimethyl sulfoxide (DMSO) was diluted with a buffer (50 mM Tris-HCl (pH 7.5), 5 mM MgCl2, 5 mM MnCl2, 2 mM dithiothreitol, 0.01% Tween-20). To this compound solution (5 μL) was added a buffer (10 μL) containing 7.5 ng/ml of FLT3 intracellular domain protein (Millipore) and 250 ng/mL of biotin labeled polypeptide biotinyl-poly-Glu:Tyr (4:1) (CIS bio International). At 5 min after mixing kinase enzyme and the compound and biotin labeled polypeptide, to the obtained mixture was added a buffer (10 μL) containing ATP (5 μM), the mixture was allowed to react at 25° C. for 10 min and the reaction was quenched with 25 μL of a stop solution (100 mM EDTA disodium salt, 62.5 mM HEPES buffer (pH 7.4), 250 mM NaCl, 0.1% bovine serum albumin, 10 μg/mL AlphaScreen assay streptavidin donor beads (Streptavidin Donor Beads: PerkinElmer), 10 μg/mL AlphaScreen assay anti-phosphotyrosine recognition antibody Y-100 binding acceptor beads (Anti-phosphotyrosine (P-Tyr-100) Acceptor beads: PerkinElmer)). The reaction solution was allowed to stand at 25° C. for 16 hrs, and the wells were counted using a plate reader (Envision™ (PerkinElmer)). The kinase inhibitory rate (%) of the test compound was calculated by the following formula: Inhibitory rate (%)=(1−(count of test compound−blank)÷(control−blank))×100
(§2) The count of the solution reacted without addition of the compound was used as a “control”, and the count of the solution without the compound and ATP was used as a “blank”.

[4] = target: T2, Tie2 intracellular domain protein (Homo sapiens, UniProt Q02763); assay: TIE2 kinase inhibitory activity (AlphaScreen); assay type: biochemical
T2 construct: 50 ng/mL of Tie2 intracellular domain protein (Millipore); purchased Millipore
T2 sequence (Q02763 770-1124 limits assumed): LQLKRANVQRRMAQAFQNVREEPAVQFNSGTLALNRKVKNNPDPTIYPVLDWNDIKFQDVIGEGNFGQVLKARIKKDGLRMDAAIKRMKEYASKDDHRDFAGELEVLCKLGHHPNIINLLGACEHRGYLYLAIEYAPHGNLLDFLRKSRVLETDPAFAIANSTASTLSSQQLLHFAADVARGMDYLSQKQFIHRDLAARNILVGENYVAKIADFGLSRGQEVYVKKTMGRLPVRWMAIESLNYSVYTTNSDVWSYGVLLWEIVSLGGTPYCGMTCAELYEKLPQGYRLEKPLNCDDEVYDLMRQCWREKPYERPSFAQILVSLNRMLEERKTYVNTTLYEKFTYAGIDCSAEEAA
Method: A test compound dissolved in dimethyl sulfoxide (DMSO) was diluted with a buffer (50 mM Tris-HCl (pH 7.5), 5 mM MgCl2, 5 mM MnCl2, 2 mM dithiothreitol, 0.01% Tween-20). A buffer (10 μL) containing 50 ng/mL of Tie2 intracellular domain protein (Millipore) and 250 ng/ml, of biotin labeled polypeptide biotinyl-poly-Glu:Tyr (4:1) (CIS bio International) was added to the compound solution (5 μL). At 5 min from the mixing of the kinase enzyme, the compound and the biotin labeled polypeptide, a buffer (10 μL) containing 5 μM ATP was added, and the mixture was reacted at 25° C. for 10 min. The reaction was quenched by the addition of 25 μL of a stop solution (100 mM EDTA disodium salt, 62.5 mM HEPES buffer (pH 7.4), 250 mM NaCl, 0.1% bovine serum albumin, 10 μg/ml AlphaScreen assay streptavidin donor beads (Streptavidin Donor beads: PerkinElmer), 10 μg/ml, AlphaScreen assay anti-phosphotyrosine recognition antibody PT-66 binding acceptor beads (Anti-phosphotyrosine (PT-66) Acceptor beads: PerkinElmer)). The reaction solution was allowed to stand at 25° C. for 16 hrs, and the […] were counted using a plate reader (Fusion™ (PerkinElmer)). The kinase inhibitory rate (%) of the test compound was calculated by the following formula: Inhibitory rate (%)=(1−(count of test compound−blank)÷(control−blank))×100
as §2

[5] = system: Human blood cell cancer cell line MV-4-11; assay: Human blood cell cancer cell line MV-4-11 growth inhibitory test; assay type: cell-based; details: MV4-11, 72 h, culture for 3 days
Method: Human blood cell cancer cell line MV-4-11 (ATCC) was cultured in IMDM (Invitrogen) containing 10% bovine fetal serum in an incubator at 37° C., 5% CO2. MV-4-11 cells were treated with trypsin/EDTA and recovered. The cells were suspended in IMDM containing 10% bovine fetal serum, plated on a 96 well flat bottom plate at a cells density of 30,000 cells/50 μL per well. After culturing overnight, various concentrations of test substance were dissolved in IMDM containing 10% bovine fetal serum and added to each well by 50 μL. After culture for 3 days, a Cell counting kit-8 reagent (DOJINDO LABORATORIES) was added to each well by 10 μL, and reacted in an incubator at 37° C., 5% CO2 for 2-3 hr. After the reaction, the absorbance of each well at 450 nm was measured by a microtiter plate reader. The concentration of a test substance necessary for inhibiting the growth by 50% (IC50 value) was calculated using a cell proliferation rate with addition of the test substance at each concentration and according to the nonlinear regression analysis using GraphPad Prism [Sigmoidal dose response (variable slope)].

**Q.** Which results are given for Cc1ccc(C(=O)Nc2ccc(Oc3ccc4nc(NC(=O)C5CC5)cn4c3)c(F)c2)c(=O)n1-c1ccccc1.Cl [Example 88, N-[4-({2-[(cyclopropylcarbonyl)amino]imidazo[1,2-a]pyridin-6-yl}oxy)-3-fluorophenyl]-6-methyl-2-oxo-1-phenyl-1,2-dihydropyridine-3-carboxamide hydrochloride]?
**A.** tumor growth rate (%) (MKN-45 cells; MKN-45, dose 2 mg/kg): 17%; tumor growth rate (%) (MV-4-11 cells): <0%

**Q.** What does the source list for Cc1ccc(C(=O)Nc2ccc(Oc3ccc4nc(NC(=O)C5CC5)cn4c3)c(F)c2)c(=O)n1-c1ccccc1 [Example 86, N-[4-({2-[(cyclopropylcarbonyl)amino]imidazo[1,2-a]pyridin-6-yl}oxy)-3-fluorophenyl]-6-methyl-2-oxo-1-phenyl-1,2-dihydropyridine-3-carboxamide acetate]?
**A.** IC50 [1]: ≤ 2000 nM; IC50 ([2]; read-out: IC50 value): ≤ 1000 nM; inhibition at 1 µM ([2]; read-out: inhibitory rate (%) at 1 μM, 1 μM test substance, culture for 3 days): ≥ 80%; IC50 [3]: ≤ 1000 nM; IC50 [4]: ≤ 1000 nM; inhibition at 1 µM ([5]; 1 μM test substance, read-out: inhibitory rate (%) at 1 μM): ≥ 90%; IC50 [5]: ≤ 1000 nM

**Q.** Which results are given for Cc1ccc(C(=O)Nc2ccc(Oc3ccc4nc(NC(=O)C5CC5)cn4c3)c(F)c2)c(=O)n1-c1ccccc1.Cc1ccc(S(=O)(=O)O)cc1 [Example 87, N-[4-({2-[(cyclopropylcarbonyl)amino]imidazo[1,2-a]pyridin-6-yl}oxy)-3-fluorophenyl]-6-methyl-2-oxo-1-phenyl-1,2-dihydropyridine-3-carboxamide p-toluenesulfonate]?
**A.** tumor growth rate (%) (MKN-45 cells; MKN-45, dose 2 mg/kg): 17%; tumor growth rate (%) (MV-4-11 cells): <0%

**Q.** What does the source list for Cl.O=C(Nc1cn2cc(Oc3ccc(NC(=O)C4(C(=O)Nc5ccccc5)CC4)cc3F)ccc2n1)C1CC1 [Example 15, N-[4-({2-[(cyclopropylcarbonyl)amino]imidazo[1,2-a]pyridin-6-yl}oxy)-3-fluorophenyl]-N′-phenylcyclopropane-1,1-dicarboxamide hydrochloride]?
**A.** tumor growth rate (%) (MKN-45 cells; MKN-45, dose 2 mg/kg): 85%; tumor growth rate (%) (MV-4-11 cells): 17%

**Q.** With Cc1ccc(C(=O)Nc2ccc(Oc3ccc4nc(NC(=O)C5CC5)cn4c3)cn2)[n+]([O-])c1-c1ccc(F)cc1.Cl.O [Example 63, N-[5-({2-[(cyclopropylcarbonyl)amino]imidazo[1,2-a]pyridin-6-yl}oxy)pyridin-2-yl]-6-(4-fluorophenyl)-5-methylpyridine-2-carboxamide 1-oxide•hydrochloride•monohydrate] as the molecule, how does the “tumor growth rate (%)” value (MKN-45 cells; MKN-45, dose 1 mg/kg) read?
**A.** 24%

**Q.** And the “tumor growth rate (%)” value (MV-4-11 cells)?
**A.** <0%
